Data set [1] has as its system adenosine aminohydrolase (adenosine deaminase). Kind of data set: Kinetic Constant (Km) against Adenosine Aminohydrolase was determined from calf intestinal mucosa. It is filed as ADME, Bos taurus. As to conditions: cattle.
The species named for a further data set is Bos taurus. In words: Kinetic constant (Vmax) against Adenosine Aminohydrolase was determined from calf intestinal mucosa. As to conditions: cattle, in vitro. It is filed as ADME.
The target in a further data set is T1, Adenosine deaminase (Bos taurus, UniProt P56658).
T1 sequence (P56658 whole entry): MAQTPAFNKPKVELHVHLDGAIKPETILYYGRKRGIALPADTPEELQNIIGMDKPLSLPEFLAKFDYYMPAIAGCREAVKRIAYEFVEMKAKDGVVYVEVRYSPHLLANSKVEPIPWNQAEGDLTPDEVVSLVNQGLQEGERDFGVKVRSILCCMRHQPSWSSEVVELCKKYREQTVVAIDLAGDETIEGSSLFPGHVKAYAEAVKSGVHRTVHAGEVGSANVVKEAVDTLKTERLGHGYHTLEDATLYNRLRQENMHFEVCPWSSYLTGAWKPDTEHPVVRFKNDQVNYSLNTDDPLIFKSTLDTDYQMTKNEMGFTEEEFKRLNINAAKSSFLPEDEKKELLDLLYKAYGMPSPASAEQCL
In words: Inhibition constant against Adenosine deaminase was determined from calf intestinal mucosa.

This is an account of results in ChEMBL document CHEMBL1121522, “Binding specificities of adenosine aminohydrolase from calf intestinal mucosa with dialdehydes derived from hexofuranosyladenine nucleosides” (J Med Chem, 1980).

For orientation: Km means the substrate concentration at which the rate is half of its maximum. What is called Vmax is the rate approached at saturating substrate. Usually Ki stands for the equilibrium dissociation constant of an inhibitor or competing ligand from its target. A high value points to weaker binding.

In the case of `CC(O)[C@H](C=O)O[C@@H](C=O)n1cnc2c(N)ncnc21` (stereo partly drawn), the Km in data set [1] came out at 140 µM. Besides, the Vmax in the data set filed under Bos taurus was determined as 0.41 µmol/min/mg. Affinity on Adenosine deaminase was put at a Ki of 370 µM.

Take `C=C[C@@H](C=O)O[C@@H](C=O)n1cnc2c(N)ncnc21`: at Adenosine deaminase, the Ki stood at 50 µM.

`C=C[C@H](C=O)O[C@H](C=O)n1cnc2c(N)ncnc21` yielded a Ki on Adenosine deaminase of 7 µM.

For `CC(O)[C@@H](C=O)O[C@@H](C=O)n1cnc2c(N)ncnc21` (stereo partly drawn), the Km in data set [1] came out at 350 µM. Moreover, in the data set filed under Bos taurus, the Vmax was found to be 0.46 µmol/min/mg. Moreover, at Adenosine deaminase, affinity was put at a Ki of 430 µM.
